Assay results: patent US8513236B2 (Laurus Labs Private Limited, priority 2010, dated 2013)
“Also recorded” adds a separate entry of the source.

Key:
[1] = Relative humidity stability at ambient temperature, analyzed by XRPD; format: physicochemical
Source text: Upon completion of the duration allowed, the samples were immediately analyzed by XRPD.

[2] = Slurrying in water, resulting solid form; format: physicochemical; conditions: for result of slurrying in water: three days
hyperglycemic rats = conditions: cited from earlier work
cancer cell lines = conditions: in vitro; cited from earlier work
[3] = cited from earlier work
[4] = cited from earlier work; remark: listed apart in the source
[5] = Intrinsic dissolution in 900 mL water at ambient conditions (attempted); format: physicochemical; conditions: after 30 minutes
Procedure: Intrinsic dissolution in 900 mL water at ambient conditions was also attempted. […] Therefore, a concentration vs. time and intrinsic dissolution rate value were unobtainable at these conditions.

With `Cn1c(=O)c2c(ncn2C)n(C)c1=O` [caffeine] the Results ([1]; 75% RH, 1 week) was “caffeine anhydrous”, the Results ([1]; 75% RH, 4 weeks) was “does not display signs of conversion; also recorded: caffeine anhydrous” and the Results ([1]; 75% RH, 1 day) was “caffeine anhydrous”. For the same compound, the Results ([1]; 75% RH, 3 days) was “caffeine anhydrous”, the Results ([1]; 94% RH, 1 week (7 days)) was “caffeine hydrate” and the Results ([1]; 94% RH, 4 weeks) was “caffeine hydrate”. For the same compound, the Results ([1]; 94% RH, 1 day) was “caffeine anhydrous”, the Results ([1]; 94% RH, 3 days) was “caffeine anhydrous/caffeine hydrate” and the conversion to hydrate ([1]; 94% RH, between one and three days) was “partial conversion”. For the same compound, the Results ([1]; 98% RH, 1 week) was “caffeine hydrate”, the Results ([1]; 98% RH, 4 weeks) was “caffeine hydrate” and the Results ([1]; 98% RH, 1 day) was “caffeine hydrate”. The Results ([1]; 98% RH, 3 days) was “caffeine hydrate” and the conversion to hydrate ([1]; 98% RH, in less than one day) was “converts to caffeine hydrate”.
In the case of `COc1cc(/C=C/c2ccc(O)cc2)cc(OC)c1.Cn1c(=O)c2c(ncn2C)n(C)c1=O` [cocrystal 1 (Form I), pterostilbene:caffeine], the Results ([1]; 75% RH, 1 week) is reported as “cocrystal 1 (Form I), no caffeine hydrate”, the Results ([1]; 75% RH, 1 week, additional stress at 98% RH) is reported as “cocrystal 1 (Form I), no caffeine hydrate” and the Results ([1]; 75% RH, 4 weeks) is reported as “cocrystal 1 (Form I), no caffeine hydrate”. For the same compound, the Results ([1]; 75% RH, 1 day) was “cocrystal 1 (Form I), no caffeine hydrate”, the Results ([1]; 75% RH, 1 day, additional stress at 98% RH) was “cocrystal 1 (Form I), no caffeine hydrate” and the Results ([1]; 75% RH, 3 days) was “cocrystal1 (Form I), no caffeine hydrate”. For the same compound, the Results ([1]; 94% RH, 1 week (7 days)) was “cocrystal 1 (Form I), no caffeine hydrate”, the Results ([1]; 94% RH, 4 weeks) was “cocrystal 1 (Form I), no caffeine hydrate” and the Results ([1]; 94% RH, 1 day) was “cocrystal 1 (Form I), no caffeine hydrate”. For the same compound, the Results ([1]; 94% RH, 3 days) was “cocrystal 1 (Form I), no caffeine hydrate”, the Results ([1]; 94% RH, 7 days, additional stress at 98% RH, 4 weeks) was “cocrystal 1 (Form I), no caffeine hydrate” and the Results ([2]; slurry, 2 days) was “cocrystal 1 (Form I), no caffeine hydrate”. The “result of slurrying in water” value [2] was “precipitation of pterostilbene”.
With `COc1cc(/C=C/c2ccc(O)cc2)cc(OC)c1.Cn1c(=O)c2c(ncn2C)n(C)c1=O` [cocrystal 1, pterostilbene:caffeine] the Results ([1]; 75% RH, 4 weeks) was “no dissociation”, the Results ([1]; 94% RH, 4 weeks) was “no dissociation” and the Results ([1]; 98% RH, 4 weeks) was “no dissociation”.
In the case of `CN(C)C(=N)N=C(N)N` [metformin], the “decreased plasma glucose levels” value (hyperglycemic rats) is listed as 48%.
With `COc1cc(/C=C/c2ccc(O)cc2)cc(OC)c1` [pterostilbene, trans-3,5-dimethoxy-4′-hydroxystilbene] the Results ([1]; 75% RH, 4 weeks) was “pterostilbene (Form I)”, the Results ([1]; 94% RH, 4 weeks) was “pterostilbene (Form I)” and the Results ([1]; 98% RH, 4 weeks) was “pterostilbene (Form I)”. The “cytotoxic activity against cancer cell lines” value (cancer cell lines) was “cytotoxic activity”, the solubility in water [3] was “poor solubility in water” and the bioavailability [4] was “poor bioavailability”.
In the case of “pterostilbene:carbamazepine [cocrystal 2]”, the “result of slurrying in water” value [2] is reported as “stable”.
With “pterostilbene:glutaric acid [cocrystal 3]” the Results ([1]; 75% RH, 4 weeks) was “no dissociation”, the Results ([1]; 94% RH, 4 weeks) was “no dissociation” and the Results ([1]; 98% RH, 4 weeks) was “no dissociation”. For the same compound, the “XRPD results when slurrying in water at ambient” value ([2]; after 5 minutes) was “crystalline pterostilbene” and the “XRPD results, intrinsic dissolution” value [5] was “crystalline pterostilbene”.
